# Counter-ions that a name gives are not always drawn.
# Legend:
# motility = experiment: Examination of Locomotive Stimulating Effect on Motility Test
# Procedure: b. Examination of Locomotive Stimulating Effect on Motility Test
# The tests were performed on white mice. An intraperitoneal dosage of 500 mg./kg. of L-Dopa was administered 30 minutes after the pre-treatment with Cyproheptadine hydrochloride.
# [1] = system: Perphenazine-induced catalepsy; experiment: Antagonism of Perphenazine-induced Catalepsy; format: in vivo, white rats
# Procedure: The synergistic increase in the antiparkinson effect was investigated by studying the inhibition of Oxotremorine-induced tremor and the antagonism of Perphenazine-induced catalepsy.
# The tests were performed on white rats of both sexes, each weighing 150 to 200 g. The animals were treated orally with varying amounts of Cyproheptadine hydrochloride or L-Dopa, respectively, and 30 minutes after the introduction of the active agents the animals were treated with a standard dosage of Perphenazine [2-chloro-10-(3-/4-(2-hydroxy-ethyl)-1-piperazinyl/-propyl)-phenothiazine]. The percentage of catalepsy inhibition was examined as a function of the time.
# The interaction of the active agents was studied on white rats, according to the method described above. Cyproheptadine hydrochloride was administered in oral dosages of 2 or 4 mg./kg., respectively. 30 minutes after the introduction of Cyproheptadine hydrochloride the animals were treated with varying amounts of L-Dopa, and after an additional period of 30 minutes the animals were treated with a standard dosage of Perphenazine.
# [2] = system: Oxotremorine-induced tremor; experiment: Inhibition of Oxotremorine-induced Tremor; format: in vivo, mice; conditions: for ED50 found: 30 min; for ED50 calculated: expected from isobole
# Procedure: The tests were performed on mice of both sexes, each weighing 20 to 30 g. The groups consisted of 20 animals each. The test animals were treated orally with varying amounts of Cyproheptadine hydrochloride or L-Dopa, respectively.
# 30 minutes after the administration of L-Dopa, varying amounts of Cyproheptadine hydrochloride were introduced, and after further 30 minutes the animals were treated with a standard dosage of Oxotremorine.
# In a further series of tests the animals were treated with 1 mg./kg. of Cyproheptadine hydrochloride. 30 minutes after the administration of Cyproheptadine hydrochloride, L-Dopa was introduced in varying amounts, and after a further period of 30 minutes the animals were treated with a standard dosage of Oxotremorine.
# The expected ED50 values were determined by constructing an isobole, and the expected values were compared to the observed ones.
# [3] = Toxicity Tests (oral, individual and joint toxicity); conditions: mouse, in vivo, po; for mortality at 72 h: Perishment, %
# Procedure: (§1) The toxicities of the individual components were determined separately on mice. The active agents were suspended in water containing Tween 80, and the suspension was administered orally to the animals in a dosage of 20 ml./kg. The animals were kept under observation for 72 hours. The poisoned animals perished within 48 hours.
# (§2) The joint toxicity of the individual active agents was determined as follows:
# (§3) a. The animals were treated with 1 g/kg. of L-Dopa. 1 hour after the administration of L-Dopa, the animals were treated with varying amounts of Cyproheptadine hydrochloride.
# (§4) b. The animals were treated with 2 g./kg. of L-Dopa, and varying amounts of Cyproheptadine hydrochloride were administered subsequently.
# (§5) c. The animals were treated with 3 g./kg. of L-Dopa, and subsequently Cyproheptadine hydrochloride was administered in varying amounts.
# (§6) In order to evaluate the changes in toxicity, the expected toxicities of the compositions listed below were determined by constructing an isobole, and the calculated data were compared to the observed ones.
# mice = experiment: as above
# Procedure: as §1, §2, §3, §4, §5, §6
# hexobarbital narcosis = experiment: Examination of Sedative Effects, Hexobarbital Narcosis Test; conditions: for Positive animals/treated animals: positive = sleep higher by at least 150% than control
# Procedure: The side effects of the individual active agents as well as those of the compositions were examined as follows:
# Examination of Sedative Effects on Mice, According to the Hexobarbital Narcosis Test
# The compounds to be tested were suspended in water containing Tween 80, and 20 ml./kg. dosages of the obtained suspensions were administered orally to the test animals.
# [4] = Cyproheptadine HCl 2.5 mg./kg. p.o. + physiological saline i.p.
# [5] = Cyproheptadine hydrochloride 10 mg./kg. oral
# [6] = Cyproheptadine hydrochloride 20 mg./kg. oral
# [7] = Table 5, Cyproheptadine HCl 2 mg./kg. alone
# [8] = Table 5, Cyproheptadine HCl 4 mg./kg. alone
# [9] = Cyproheptadine hydrochloride after 200 mg./kg. L-Dopa
# [10] = physiological saline p.o. + L-Dopa 500 mg./kg. i.p.
# [11] = L-Dopa after 1 mg./kg. Cyproheptadine HCl
compound,measurement,setting,value
CN1CCC(=C2c3ccccc3C=Cc3ccccc32)CC1 [Cyproheptadine HCl],Average No. of light interruptions,motility; [4],145
same,Change %,motility; [4],-36%
same,influence on locomotive stimulating effect of L-Dopa (in words),"motility; in the tested dosages, conclusion from Table 9",does not influence the locomotive stimulating effect of L-Dopa
same,Percentage inhibition after 0.5 hours,[1]; [5],89%
same,Percentage inhibition after 1 hours,[1]; [5],72%
same,Percentage inhibition after 2 hours,[1]; [5],61%
same,Percentage inhibition after 3 hours,[1]; [5],57%
same,Percentage inhibition after 0.5 hours,[1]; [6],76%
same,Percentage inhibition after 1 hours,[1]; [6],77%
same,Percentage inhibition after 2 hours,[1]; [6],73%
same,Percentage inhibition after 3 hours,[1]; [6],59%
same,Percentage inhibition after 0.5 hours,[1]; [7],37%
same,Percentage inhibition after 1 hours,[1]; [7],8%
same,Percentage inhibition after 2 hours,[1]; [7],14%
same,Percentage inhibition after 3 hours,[1]; [7],8%
same,Percentage inhibition after 0.5 hours,[1]; [8],20%
same,Percentage inhibition after 1 hours,[1]; [8],10%
same,Percentage inhibition after 2 hours,[1]; [8],14%
same,Percentage inhibition after 3 hours,[1]; [8],18%
same,"Inhibition, %",[2]; 0.2 mg./kg. after 200 mg./kg. L-Dopa pre-treatment,0%
same,"Inhibition, %",[2]; 0.4 mg./kg. after 200 mg./kg. L-Dopa pre-treatment,20%
same,"Inhibition, %",[2]; 0.8 mg./kg. after 200 mg./kg. L-Dopa pre-treatment,50%
same,"Inhibition, %",[2]; 1.6 mg./kg. after 200 mg./kg. L-Dopa pre-treatment,90%
same,Difference (percentage deviation of ED50 calculated vs. found),[2]; [9],+107%
same,ED50 found,[2]; [9],0.7 mg/kg
same,ED50,"[2]; Mus musculus, 0.5 h, Cyproheptadine hydrochloride alone, oral, 30 min before Oxotremorine",3 mg/kg
same,ED50 calculated,[2]; [9],1.45 mg/kg
same,LD50 at 72 h,[3],135 mg/kg
same,mortality at 72 h,"[3]; 40 mg/kg, 40 mg./kg., after 3 g./kg. L-Dopa",5%
same,mortality at 72 h,"[3]; 60 mg/kg, 60 mg./kg., after 2 g./kg. L-Dopa",0%
same,mortality at 72 h,"[3]; 60 mg/kg, 60 mg./kg., after 3 g./kg. L-Dopa",25%
same,mortality at 72 h,"[3]; 90 mg/kg, 90 mg./kg., 1 hour after 1 g/kg. L-Dopa",10%
same,mortality at 72 h,"[3]; 90 mg/kg, 90 mg./kg., after 2 g./kg. L-Dopa",10%
same,mortality at 72 h,"[3]; 90 mg/kg, 90 mg./kg., after 3 g./kg. L-Dopa",45%
same,mortality at 72 h,"[3]; 200 mg/kg, 200 mg./kg., 1 hour after 1 g/kg. L-Dopa",70%
same,mortality at 72 h,"[3]; 200 mg/kg, 200 mg./kg., after 2 g./kg. L-Dopa",85%
same,mortality at 72 h,"[3]; 200 mg/kg, 200 mg./kg., after 3 g./kg. L-Dopa",75%
same,mortality at 72 h,"[3]; 300 mg/kg, 300 mg./kg., 1 hour after 1 g/kg. L-Dopa",95%
same,Perished animals/treated animals,"mice; 40 mg./kg., after 3 g./kg. L-Dopa",1/20
same,Perished animals/treated animals,"mice; 60 mg./kg., after 2 g./kg. L-Dopa",0/20
same,Perished animals/treated animals,"mice; 60 mg./kg., after 3 g./kg. L-Dopa",5/20
same,Perished animals/treated animals,"mice; 90 mg./kg., 1 hour after 1 g/kg. L-Dopa",2/20
same,Perished animals/treated animals,"mice; 90 mg./kg., after 2 g./kg. L-Dopa",2/20
same,Perished animals/treated animals,"mice; 90 mg./kg., after 3 g./kg. L-Dopa",9/20
same,Perished animals/treated animals,"mice; 200 mg./kg., 1 hour after 1 g/kg. L-Dopa",14/20
same,Perished animals/treated animals,"mice; 200 mg./kg., after 2 g./kg. L-Dopa",17/20
same,Perished animals/treated animals,"mice; 200 mg./kg., after 3 g./kg. L-Dopa",15/20
same,Perished animals/treated animals,"mice; 300 mg./kg., 1 hour after 1 g/kg. L-Dopa",19/20
same,% positive animals,hexobarbital narcosis; 2.5 mg./kg. oral,33%
same,Positive animals/treated animals,hexobarbital narcosis; 2.5 mg./kg. oral,6/18
same,% positive animals,hexobarbital narcosis; 5.0 mg./kg. oral,66%
same,Positive animals/treated animals,hexobarbital narcosis; 5.0 mg./kg. oral,4/6
same,% positive animals,hexobarbital narcosis; 10.0 mg./kg. oral,83%
same,Positive animals/treated animals,hexobarbital narcosis; 10.0 mg./kg. oral,5/6
"N[C@@H](Cc1ccc(O)c(O)c1)C(=O)O [L-Dopa, L-3,4-dihydroxyphenylalanine]",Average No. of light interruptions,motility; [10],465
same,Change %,motility; [10],+105%
same,Percentage inhibition after 0.5 hours,[1]; L-Dopa 100 mg./kg. oral,2%
same,Percentage inhibition after 1 hours,[1]; L-Dopa 100 mg./kg. oral,15%
same,Percentage inhibition after 2 hours,[1]; L-Dopa 100 mg./kg. oral,18%
same,Percentage inhibition after 3 hours,[1]; L-Dopa 100 mg./kg. oral,18%
same,Percentage inhibition after 4 hours,[1]; L-Dopa 100 mg./kg. oral,10%
same,Percentage inhibition after 0.5 hours,[1]; L-Dopa 200 mg./kg. oral,0%
same,Percentage inhibition after 1 hours,[1]; L-Dopa 200 mg./kg. oral,23%
same,Percentage inhibition after 2 hours,[1]; L-Dopa 200 mg./kg. oral,23%
same,Percentage inhibition after 3 hours,[1]; L-Dopa 200 mg./kg. oral,3%
same,Percentage inhibition after 4 hours,[1]; L-Dopa 200 mg./kg. oral,5%
same,Percentage inhibition after 0.5 hours,[1]; L-Dopa 400 mg./kg. oral,27%
same,Percentage inhibition after 1 hours,[1]; L-Dopa 400 mg./kg. oral,33%
same,Percentage inhibition after 2 hours,[1]; L-Dopa 400 mg./kg. oral,32%
same,Percentage inhibition after 3 hours,[1]; L-Dopa 400 mg./kg. oral,20%
same,Percentage inhibition after 4 hours,[1]; L-Dopa 400 mg./kg. oral,10%
same,"Inhibition, %",[2]; L-Dopa 50 mg./kg. after 1 mg./kg. Cyproheptadine hydrochloride,15%
same,"Inhibition, %",[2]; L-Dopa 100 mg./kg. after 1 mg./kg. Cyproheptadine hydrochloride,52.5%
same,"Inhibition, %",[2]; L-Dopa 200 mg./kg. after 1 mg./kg. Cyproheptadine hydrochloride,67.5%
same,"Inhibition, %",[2]; L-Dopa 400 mg./kg. after 1 mg./kg. Cyproheptadine hydrochloride,85%
same,Difference (percentage deviation of ED50 calculated vs. found),[2]; [11],+117%
same,ED50 found,[2]; [11],120 mg/kg
same,ED50 calculated,[2]; [11],260 mg/kg
same,LD50 at 72 h,[3],4200 mg/kg
same,influence on toxicity of the other agent (in words),mice; pre-treatments with 1 and 2 g./kg. of L-dopa,hardly influence the toxicity of Cyproheptadine hydrochloride
same,% positive animals,hexobarbital narcosis; 520 mg./kg. oral,0%
same,% positive animals,hexobarbital narcosis; 800 mg./kg. oral,16.6%
same,% positive animals,hexobarbital narcosis; 1200 mg./kg. oral,83%
